{"source": "paper PMC13576449", "about": "“Small-Molecule Activators of PRMT1: Discovery, SAR Analyses, and Proapoptotic Effects in Pancreatic Cancer Cells” (Journal of Medicinal Chemistry, 2026)", "molecular_target": "T1, FLAG-tagged PRMT4 (Mus musculus, UniProt Q9WVG6)", "T1 construct": "Full-length FLAG-tagged PRMT protein; made in house; host or cells: Sf9 insect cells (baculovirus)", "T1 sequence (Q9WVG6 1-608)": "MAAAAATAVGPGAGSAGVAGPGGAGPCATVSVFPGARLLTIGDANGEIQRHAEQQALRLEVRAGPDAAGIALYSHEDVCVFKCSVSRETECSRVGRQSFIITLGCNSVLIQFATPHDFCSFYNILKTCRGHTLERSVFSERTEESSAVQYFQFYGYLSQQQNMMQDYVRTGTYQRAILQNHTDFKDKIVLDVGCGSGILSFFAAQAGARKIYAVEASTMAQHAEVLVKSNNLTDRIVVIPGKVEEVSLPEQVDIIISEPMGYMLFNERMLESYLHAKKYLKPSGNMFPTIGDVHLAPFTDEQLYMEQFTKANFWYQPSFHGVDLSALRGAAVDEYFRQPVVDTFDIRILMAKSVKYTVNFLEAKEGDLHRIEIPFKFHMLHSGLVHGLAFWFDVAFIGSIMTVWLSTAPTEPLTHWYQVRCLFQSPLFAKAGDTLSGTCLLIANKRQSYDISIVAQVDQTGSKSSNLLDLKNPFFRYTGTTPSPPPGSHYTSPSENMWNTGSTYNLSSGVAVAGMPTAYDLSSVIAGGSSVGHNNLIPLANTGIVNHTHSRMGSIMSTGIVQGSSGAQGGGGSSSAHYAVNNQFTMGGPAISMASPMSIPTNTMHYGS", "experiment": "Fluorescence-based in vitro PRMT assay (F-PRMT assay), PRMT4", "type": "biochemical", "conditions": "for Experimental result (PRMT4): vs solvent control = 100%", "summary_of_the_method": "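Baculovirus/Sf9-expressed FLAG-PRMTs (human PRMT3, PRMT6; mouse PRMT4), anti-FLAG purified and used bead-bound, methylated Bz-Arg-AMC with SAM for 2 h at 37 °C, 1,000 rpm. Technical triplicates; no-SAM negative controls.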", "data": [{"smiles": "CN(C)Cc1cccc(CN/C=C2\\C(=O)NC(=O)c3ccccc32)c1.Cl", "note": "[TR-07, (Z)-1-[3-({[(1,3-Dioxo-2,3-dihydroisoquinolin-4(1H)-lidene)methyl]amino}methyl)phenyl]-N,N-dimethylmethanaminium chloride]", "values": [{"measurement": "effect on PRMT4 activity (in words)", "setting": "100 μM compound", "value": "neither positively nor negatively influencing"}, {"measurement": "Experimental result (PRMT4)", "setting": "Table 1, 100 μM compound, 2 μM PRMT, n = 3, racemates used", "value": "PRMT4 n.e. (Compounds, which did not significantly affect the catalytic activity (less than ±6% change or not significant p-value), are marked with [drawing 8] (no effect))"}, {"measurement": "Experimental result (PRMT4)", "setting": "Table S3, 100 µM compound, n≥3", "value": "n.e. (did not significantly affect the catalytic activity (less than ±6% change or not significant p-value), are marked with n.e. (no effect))"}]}]}
